Results on 2 molecules are retold here after ChEMBL document CHEMBL4385643, “Design of a brain-penetrant CDK4/6 inhibitor for glioblastoma” (Bioorg Med Chem Lett, 2019).

Experiment [1] deals with cGMP-dependent protein kinase 1 (Homo sapiens) (UniProt Q13976). The experiment can be described thus: Inhibition of recombinant full length human GST-tagged PKG1 alpha expressed in baculovirus expression system at 0.1 uM using CREBtide as substrate 60 mins by Lanthascreen assay relative to control. (In general: TR-FRET usually uses a lanthanide donor and a delayed reading to cut background.)

Experiment [2] has as its target Ephrin type-A receptor 1 (Homo sapiens) (UniProt P21709). The experiment can be described thus: Inhibition of recombinant human GST-tagged EPHA1 (568 to 976 residues) expressed in baculovirus expression system at 0.1 uM using tyrosine-2 peptide as substrate incubated for 60 mins by Z'-LYTE assay relative to control.
In experiment [3] the target is Activated CDC42 kinase 1 (Homo sapiens) (UniProt Q07912). Briefly: Inhibition of tracer 236 binding to recombinant human GST-tagged TNK2 catalytic domain (110 to 476 residues) expressed in baculovirus expression system at 0.1 uM measured after 60 mins by Lanthascreen assay.
The target of experiment [4] is Serine/threonine-protein kinase PAK 1 (Homo sapiens) (UniProt Q13153). Briefly: Inhibition of recombinant full length human GST-tagged PAK1 expressed in baculovirus expression system at 0.1 uM using serine/threonine-19 peptide as substrate incubated for 60 mins by Z'-LYTE assay relative to control.
Sequence of Serine/threonine-protein kinase PAK 1 (Homo sapiens) (Q13153 whole entry): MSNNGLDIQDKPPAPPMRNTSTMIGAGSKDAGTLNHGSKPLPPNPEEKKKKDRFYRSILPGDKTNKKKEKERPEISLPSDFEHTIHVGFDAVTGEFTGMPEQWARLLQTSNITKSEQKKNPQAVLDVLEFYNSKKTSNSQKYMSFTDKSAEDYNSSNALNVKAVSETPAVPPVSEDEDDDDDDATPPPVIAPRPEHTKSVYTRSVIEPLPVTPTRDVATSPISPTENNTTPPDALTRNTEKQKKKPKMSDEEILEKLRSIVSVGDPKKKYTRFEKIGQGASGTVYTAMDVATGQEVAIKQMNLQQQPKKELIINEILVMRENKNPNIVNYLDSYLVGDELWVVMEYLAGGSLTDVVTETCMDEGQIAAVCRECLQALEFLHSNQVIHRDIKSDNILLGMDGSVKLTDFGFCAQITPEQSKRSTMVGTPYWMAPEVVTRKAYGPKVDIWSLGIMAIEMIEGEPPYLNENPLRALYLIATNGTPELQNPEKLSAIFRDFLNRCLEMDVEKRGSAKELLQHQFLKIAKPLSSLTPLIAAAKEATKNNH
The target of experiment [5] is 5'-AMP-activated protein kinase catalytic subunit alpha-1 (Homo sapiens) (UniProt Q13131). The experiment can be described thus: Inhibition of recombinant full length human PRKAA1 expressed in baculovirus expression system at 0.1 uM using CREBtide as substrate 60 mins by Lanthascreen assay relative to control.
Experiment [6] deals with PAS domain-containing serine/threonine-protein kinase (Homo sapiens) (UniProt Q96RG2). Briefly: Inhibition of recombinant human GST-tagged PASK catalytic domain (879 to 1323 residues) expressed in baculovirus expression system at 0.1 uM using serine/threonine-7 peptide as substrate incubated for 60 mins by Z'-LYTE assay relative to control.
The target of experiment [7] is Focal adhesion kinase 1 (Homo sapiens) (UniProt Q05397). Briefly: Inhibition of recombinant full length human GST-tagged FAK expressed in baculovirus expression system at 0.1 uM using tyrosine-7 peptide as substrate incubated for 60 mins by Z'-LYTE assay relative to control.
Sequence of Focal adhesion kinase 1 (Homo sapiens) (Q05397 2-1052 limits assumed): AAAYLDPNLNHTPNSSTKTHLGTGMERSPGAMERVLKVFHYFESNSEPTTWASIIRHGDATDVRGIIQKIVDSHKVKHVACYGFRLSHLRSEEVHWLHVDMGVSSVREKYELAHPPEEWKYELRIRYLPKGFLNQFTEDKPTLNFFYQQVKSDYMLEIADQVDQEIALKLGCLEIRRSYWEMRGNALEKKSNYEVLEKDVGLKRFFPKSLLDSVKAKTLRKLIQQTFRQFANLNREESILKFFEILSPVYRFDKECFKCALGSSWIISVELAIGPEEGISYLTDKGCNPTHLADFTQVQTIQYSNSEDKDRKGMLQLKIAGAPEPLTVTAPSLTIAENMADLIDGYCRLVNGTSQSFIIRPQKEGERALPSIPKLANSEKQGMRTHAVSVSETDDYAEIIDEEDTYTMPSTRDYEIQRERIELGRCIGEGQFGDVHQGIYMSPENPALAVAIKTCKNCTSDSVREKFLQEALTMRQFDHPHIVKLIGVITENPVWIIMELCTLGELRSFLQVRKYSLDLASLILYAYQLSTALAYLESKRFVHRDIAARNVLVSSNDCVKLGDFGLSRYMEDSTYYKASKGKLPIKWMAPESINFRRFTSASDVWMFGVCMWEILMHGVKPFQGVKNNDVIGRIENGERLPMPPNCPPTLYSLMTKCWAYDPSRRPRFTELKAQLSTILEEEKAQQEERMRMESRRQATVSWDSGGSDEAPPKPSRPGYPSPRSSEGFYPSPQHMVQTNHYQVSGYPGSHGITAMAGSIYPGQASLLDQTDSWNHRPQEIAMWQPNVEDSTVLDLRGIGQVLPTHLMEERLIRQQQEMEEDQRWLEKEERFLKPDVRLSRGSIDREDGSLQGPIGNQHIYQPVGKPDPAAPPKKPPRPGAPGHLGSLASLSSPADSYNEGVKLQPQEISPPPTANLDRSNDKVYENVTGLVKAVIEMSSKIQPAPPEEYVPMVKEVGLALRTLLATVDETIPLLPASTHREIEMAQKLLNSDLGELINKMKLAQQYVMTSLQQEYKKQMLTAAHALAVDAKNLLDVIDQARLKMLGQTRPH
Experiment [8] deals with Tyrosine-protein kinase Mer (Homo sapiens) (UniProt Q12866). Briefly: Inhibition of recombinant human GST-tagged MER (578 to 872 residues) expressed in baculovirus expression system at 0.1 uM using tyrosine-2 peptide as substrate incubated for 60 mins by Z'-LYTE assay relative to control.
Experiment [9] has as its target SRSF protein kinase 3 (Homo sapiens) (UniProt Q9UPE1). Briefly: Inhibition of recombinant full length human GST-tagged MSSK1 expressed in baculovirus expression system at 0.1 uM using serine/threonine-18 peptide as substrate incubated for 60 mins by Z'-LYTE assay relative to control.
Experiment [10] has as its target Mitogen-activated protein kinase 14 (Homo sapiens) (UniProt Q16539). Briefly: Inhibition of recombinant full length human GST-tagged p38alpha expressed in Escherichia coli expression system at 0.1 uM using serine/threonine-15 peptide as substrate incubated for 60 mins by Z'-LYTE assay relative to control.
In experiment [11] the target is Serine/threonine-protein kinase PAK 3 (Homo sapiens) (UniProt O75914). The experiment can be described thus: Inhibition of recombinant full length human His-tagged PAK3 expressed in baculovirus expression system at 0.1 uM using serine/threonine-20 peptide as substrate incubated for 60 mins by Z'-LYTE assay relative to control.
The target in experiment [12] is Receptor-interacting serine/threonine-protein kinase 2 (Homo sapiens) (UniProt O43353). The experiment can be described thus: Inhibition of tracer 178 binding to recombinant human His-tagged RIPK2 catalytic domain (1 to 299 residues) expressed in baculovirus expression system at 0.1 uM measured after 60 mins by Lanthascreen assay relative to control.
Sequence of Receptor-interacting serine/threonine-protein kinase 2 (Homo sapiens) (O43353 whole entry, the tested form may be a part): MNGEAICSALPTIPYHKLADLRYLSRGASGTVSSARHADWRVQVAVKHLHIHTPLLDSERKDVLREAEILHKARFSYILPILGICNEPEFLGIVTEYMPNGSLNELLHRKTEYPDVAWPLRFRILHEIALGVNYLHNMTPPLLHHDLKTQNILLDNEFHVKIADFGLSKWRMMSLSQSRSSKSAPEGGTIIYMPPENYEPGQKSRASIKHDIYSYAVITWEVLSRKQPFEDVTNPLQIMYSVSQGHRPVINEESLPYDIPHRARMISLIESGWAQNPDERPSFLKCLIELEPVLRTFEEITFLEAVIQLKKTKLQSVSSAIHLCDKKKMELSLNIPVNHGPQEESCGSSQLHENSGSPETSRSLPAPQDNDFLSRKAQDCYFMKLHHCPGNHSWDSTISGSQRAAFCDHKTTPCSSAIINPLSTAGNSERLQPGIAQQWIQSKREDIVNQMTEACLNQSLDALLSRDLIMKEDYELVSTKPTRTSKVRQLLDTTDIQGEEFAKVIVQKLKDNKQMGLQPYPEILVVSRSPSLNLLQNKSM
For experiment [13], the target named is Protein kinase C beta type (Homo sapiens) (UniProt P05771). The experiment can be described thus: Inhibition of recombinant full length human GST-tagged PKCbeta1 expressed in insect expression system at 0.1 uM using serine/threonine-7 peptide as substrate incubated for 60 mins by Z'-LYTE assay relative to control.
Experiment [14] addresses Serine/threonine-protein kinase Nek4 (Homo sapiens) (UniProt P51957). Briefly: Inhibition of recombinant full length human GST-tagged NEK4 expressed in baculovirus expression system at 0.1 uM using serine/threonine-17 peptide as substrate incubated for 60 mins by Z'-LYTE assay relative to control.
Experiment [15] concerns the target Tyrosine-protein kinase ZAP-70 (Homo sapiens) (UniProt P43403). The experiment can be described thus: Inhibition of recombinant full length human His-tagged ZAP70 expressed in baculovirus expression system at 0.1 uM using tyrosine-7 peptide as substrate incubated for 60 mins by Z'-LYTE assay relative to control.
Experiment [16] addresses Rho-associated protein kinase 1 (Homo sapiens) (UniProt Q13464). The experiment can be described thus: Inhibition of recombinant human GST-tagged ROCK1 catalytic domain (1 to 535 amino acids) expressed in baculovirus expression system at 0.1 uM using serine/threonine-7 peptide as substrate incubated for 60 mins by Z'-LYTE assay relative to control.
The target in experiment [17] is Protein kinase C theta type (Homo sapiens) (UniProt Q04759). The experiment can be described thus: Inhibition of recombinant full length human His-tagged PKCtheta expressed in baculovirus expression system at 0.1 uM using serine/threonine-7 peptide as substrate incubated for 60 mins by Z'-LYTE assay relative to control.
Experiment [18] concerns the target Mast/stem cell growth factor receptor Kit (Homo sapiens) (UniProt P10721). The experiment can be described thus: Inhibition of recombinant human His-tagged KIT (544 to 976 residues) expressed in baculovirus expression system at 0.1 uM using tyrosine-6 peptide as substrate incubated for 60 mins by Z'-LYTE assay relative to control.
For experiment [19], the target named is Serine/threonine-protein kinase B-raf (Homo sapiens) (UniProt P15056). The experiment can be described thus: Inhibition of recombinant full length human GST-tagged BRAF expressed in baculovirus expression system at 0.1 uM using serine/threonine-3 peptide as substrate incubated for 60 mins by Z'-LYTE assay relative to control.
In experiment [20] the target is Ribosomal protein S6 kinase alpha-5 (Homo sapiens) (UniProt O75582). The experiment can be described thus: Inhibition of recombinant full length human GST-tagged MSK1 expressed in baculovirus expression system at 0.1 uM using serine/threonine-1 peptide as substrate incubated for 60 mins by Z'-LYTE assay relative to control.
Sequence of Ribosomal protein S6 kinase alpha-5 (Homo sapiens) (O75582 whole entry, looked up, the tested form may be a part): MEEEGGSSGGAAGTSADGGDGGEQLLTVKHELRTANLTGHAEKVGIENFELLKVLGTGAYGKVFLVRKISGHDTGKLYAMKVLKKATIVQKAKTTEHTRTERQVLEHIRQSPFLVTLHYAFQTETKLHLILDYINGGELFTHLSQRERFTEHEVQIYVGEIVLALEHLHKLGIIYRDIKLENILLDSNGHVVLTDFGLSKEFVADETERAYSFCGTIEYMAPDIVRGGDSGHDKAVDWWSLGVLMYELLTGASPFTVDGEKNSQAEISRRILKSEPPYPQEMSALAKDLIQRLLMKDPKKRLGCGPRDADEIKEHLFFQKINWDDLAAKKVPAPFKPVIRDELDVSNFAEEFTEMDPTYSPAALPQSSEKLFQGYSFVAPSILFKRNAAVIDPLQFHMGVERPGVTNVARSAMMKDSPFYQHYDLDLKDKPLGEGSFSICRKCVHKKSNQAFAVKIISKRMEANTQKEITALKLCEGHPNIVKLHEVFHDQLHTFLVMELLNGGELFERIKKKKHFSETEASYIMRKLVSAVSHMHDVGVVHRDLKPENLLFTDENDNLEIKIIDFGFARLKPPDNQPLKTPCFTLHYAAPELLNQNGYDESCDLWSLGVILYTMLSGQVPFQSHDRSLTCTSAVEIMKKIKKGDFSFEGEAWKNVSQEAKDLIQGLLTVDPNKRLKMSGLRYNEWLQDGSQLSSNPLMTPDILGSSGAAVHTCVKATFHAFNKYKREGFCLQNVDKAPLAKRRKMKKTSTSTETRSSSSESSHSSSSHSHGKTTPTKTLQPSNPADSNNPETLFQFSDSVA
The species named for a further experiment is Homo sapiens. The experiment can be described thus: Inhibition of recombinant human His-tagged PKA catalytic domain (1 to 351 residues) expressed in Escherichia coli expression system at 0.1 uM using serine/threonine-1 peptide as substrate incubated for 60 mins by Z'-LYTE assay relative to control.
For experiment [21], the target named is Serine/threonine-protein kinase Sgk2 (Homo sapiens) (UniProt Q9HBY8). Briefly: Inhibition of recombinant human GST-tagged SGK2 catalytic domain (54 to 427 residues) expressed in baculovirus expression system at 0.1 uM using serine/threonine-6 peptide as substrate incubated for 60 mins by Z'-LYTE assay relative to control.
In experiment [22] the target is Serine/threonine-protein kinase 17A (Homo sapiens) (UniProt Q9UEE5). The experiment can be described thus: Inhibition of tracer 236 binding to recombinant full length human GST-tagged DRAK1 expressed in baculovirus expression system at 0.1 uM measured after 60 mins by Lanthascreen assay relative to control.

Sequence of Serine/threonine-protein kinase Nek4 (Homo sapiens) (P51957 whole entry, looked up): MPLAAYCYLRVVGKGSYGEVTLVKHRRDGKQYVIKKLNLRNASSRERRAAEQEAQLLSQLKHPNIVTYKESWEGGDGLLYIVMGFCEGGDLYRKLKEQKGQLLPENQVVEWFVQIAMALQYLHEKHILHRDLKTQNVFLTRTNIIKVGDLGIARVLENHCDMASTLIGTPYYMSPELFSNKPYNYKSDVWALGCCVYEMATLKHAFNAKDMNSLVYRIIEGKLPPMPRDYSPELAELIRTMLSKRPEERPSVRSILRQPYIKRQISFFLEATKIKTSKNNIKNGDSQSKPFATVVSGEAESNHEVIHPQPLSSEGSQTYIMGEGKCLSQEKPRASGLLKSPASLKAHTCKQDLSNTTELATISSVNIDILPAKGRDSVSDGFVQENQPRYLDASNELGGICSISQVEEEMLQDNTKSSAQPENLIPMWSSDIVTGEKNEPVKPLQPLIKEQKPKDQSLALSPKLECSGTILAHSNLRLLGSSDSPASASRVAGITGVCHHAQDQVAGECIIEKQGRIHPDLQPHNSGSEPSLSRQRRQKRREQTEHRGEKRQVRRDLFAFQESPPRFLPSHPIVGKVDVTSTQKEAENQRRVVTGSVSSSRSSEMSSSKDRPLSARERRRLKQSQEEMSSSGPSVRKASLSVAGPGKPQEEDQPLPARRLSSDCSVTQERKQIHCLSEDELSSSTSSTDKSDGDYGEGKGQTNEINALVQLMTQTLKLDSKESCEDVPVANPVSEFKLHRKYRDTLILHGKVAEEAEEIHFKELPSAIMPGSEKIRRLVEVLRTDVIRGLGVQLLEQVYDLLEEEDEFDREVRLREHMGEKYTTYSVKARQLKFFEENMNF
Sequence of Mast/stem cell growth factor receptor Kit (Homo sapiens) (P10721 whole entry, the tested form may be a part): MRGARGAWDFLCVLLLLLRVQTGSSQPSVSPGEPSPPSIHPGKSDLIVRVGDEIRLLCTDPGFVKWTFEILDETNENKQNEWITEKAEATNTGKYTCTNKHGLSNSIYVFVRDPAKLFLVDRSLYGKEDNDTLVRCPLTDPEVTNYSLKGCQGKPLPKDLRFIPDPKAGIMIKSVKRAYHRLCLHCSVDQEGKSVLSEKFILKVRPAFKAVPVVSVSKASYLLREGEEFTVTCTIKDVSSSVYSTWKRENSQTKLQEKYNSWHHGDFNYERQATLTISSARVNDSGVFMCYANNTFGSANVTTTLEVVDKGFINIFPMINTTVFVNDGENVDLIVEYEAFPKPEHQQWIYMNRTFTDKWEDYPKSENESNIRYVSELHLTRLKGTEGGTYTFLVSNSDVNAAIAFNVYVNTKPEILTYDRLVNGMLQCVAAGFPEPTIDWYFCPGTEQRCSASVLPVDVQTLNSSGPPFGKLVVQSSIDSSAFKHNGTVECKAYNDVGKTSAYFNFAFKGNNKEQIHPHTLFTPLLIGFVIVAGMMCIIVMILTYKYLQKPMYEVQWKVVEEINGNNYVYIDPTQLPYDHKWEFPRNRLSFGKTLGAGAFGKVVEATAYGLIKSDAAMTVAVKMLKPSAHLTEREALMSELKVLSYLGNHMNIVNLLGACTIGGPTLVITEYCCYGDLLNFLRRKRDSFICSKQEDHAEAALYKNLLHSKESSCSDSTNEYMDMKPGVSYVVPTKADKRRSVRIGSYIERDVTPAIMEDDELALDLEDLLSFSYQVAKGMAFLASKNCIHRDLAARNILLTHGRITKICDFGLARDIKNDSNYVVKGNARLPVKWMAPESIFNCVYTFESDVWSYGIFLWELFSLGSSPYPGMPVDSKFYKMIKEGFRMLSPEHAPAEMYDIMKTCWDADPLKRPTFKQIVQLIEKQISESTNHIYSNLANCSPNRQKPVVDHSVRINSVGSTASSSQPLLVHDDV

Usually inhibition stands for the change of the read-out against control, counted positive when it falls. With `CCN1CC2(C1)CN(c1ccc(Nc3ncc(F)c(-c4cnn5c4[C@H](C)CCCC5)n3)nc1)C2`, the inhibition in experiment [1] was found to be 6%; in experiment [2], 9.5%; in [3], 5%; in experiment [4] it was 15.5%; in experiment [5], 10%; in experiment [6], 14.5%. The inhibition amounted to 19.5% in experiment [7]; 4% in experiment [8]; 9% in experiment [9]; 3% in experiment [10]; 8% in [11]; 2% in experiment [12]. In addition, the inhibition in [13] was 4.5%; in [14], 3.5%; in [15], 7%; in [16], 2%; in experiment [17], 20.5%; in experiment [18], -0.5%. The inhibition was 4% in experiment [19]; 24.5% in experiment [20]; 4% in the experiment filed under Homo sapiens; 27.5% in [21]; 72% in experiment [22].
In the case of `CCN1CCN(Cc2ccc(Nc3ncc(F)c(-c4cc(F)c5nc(C)n(C(C)C)c5c4)n3)nc2)CC1` [ABEMACICLIB], the inhibition is 1.5% in experiment [1]; 8% in experiment [2]; 2.4% in experiment [3]; 3.5% in [4]; 13.5% in experiment [5]; 73% in experiment [6]. Moreover, the inhibition is 15.5% in experiment [7]; 20.5% in experiment [8]; 3.5% in experiment [9]; -1% in experiment [10]; 11.4% in experiment [11]; 1.1% in [12]. Also, the inhibition was 38% in experiment [13]; 42.5% in experiment [14]; -0.5% in [15]; 18.5% in [16]; 21.5% in experiment [17]; 0% in experiment [18]. The inhibition is 4.5% in [19]; 32.5% in [20]; 5% in the experiment listed under Homo sapiens; 36.5% in [21]; 56.2% in experiment [22].
